The results in this text go back to patent US6413974B1, “6,9,-disubstituted 2-[trans-(4-aminocyclohexyl) amino] purines” (Aventis Pharmaceuticals Inc., priority 1998, dated 2002).

“And” between values parts separate entries of the source, which are not always exact repeats. Equal values may be shown once. Where a name gives a salt, the structure may show the parent alone. Read-outs that look alike come from different tables or passages of the source.

For one assay, the target named is T1, cdk2/cyclin E (Homo sapiens, UniProt P24941).
T1 construct: made in house; host or cells: insect cells (baculovirus co-infection)
Kind of assay: Cyclin-Dependent Kinase 2 Assay (cdk-2 inhibition). The class given is biochemical. The following applies: GST-Rb substrate, 30 min at 30° C. An outline of the steps:
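GST-Rb bound to glutathione-Sepharose beads (0.5 μg/well) as substrate in 50 mM HEPES pH 7.5, 10 mM MgCl2, 1 mM EGTA. Recombinant cdk2/cyclin E at 0.1 μg per 100 μl, 30 min at 30 °C. Reaction stopped by filtration, TNEN washes, scintillation counting.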

The target of the next assay is T2, cdk4/cyclin D1 (Homo sapiens, UniProt P11802).
T2 construct: made in house; host or cells: Sf9 insect cells (Bac-to-Bac baculovirus, pFastBac)
As to the kind of experiment: Cyclin-dependent kinase 4 Assay. The following applies: cdk4/cyclin D1, GST-Rb substrate, 10 μM ATP, 30 min at 37° C.; read-out: CDK4 Inhibition IC50. The class given is biochemical. An outline of the steps:
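Insect-cell lysate of coexpressed human cdk4/cyclin D1 (0.1 μg) phosphorylated bead-bound GST-Rb (0.5 μg) in 50 mM HEPES pH 7.5, 10 mM MgCl2, 1 mM EGTA for 30 min at 37 °C. Filters were washed with TNEN and scintillation-counted; IC50 values derived.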

Another assay deals with MCF-7. Kind of assay: In vitro tumor cell proliferation, MCF-7. The following applies: read-out: In vitro Tumor Cell Proliferation (IC50, μM) Breast MCF-7. The assay is classed as cell-based, human. As for the experimental part: (§1) The proliferation of tumor cells was measured using a sulforhodamine B assay as described in Skehan, P., et al., J. Natl. Cancer Inst. […] Tumor cells were harvested with trypsin-EDTA, cells that excluded trypan blue were counted, added to 96-well plates and incubated overnight at 37° C. Drug was added to the wells following dilution in culture medium. Three days later, the medium was removed and replenished with medium containing fresh drug and incubated an additional 4 days. The cells were then fixed with 0.1 ml 10% trichloroacetic acid for 60 min at 4° C. The plates were rinsed five times with tap water, air-dried and stained for 30 min with 0.4% sulforhodamine B in 1% acetic acid and air-dried.
(§2) Alternatively, the CyQUANT cell proliferation assay was used to quantify tumor cell proliferation. Tumor cells were harvested with trypsin-EDTA, cells that excluded trypan blue were counted, added to 96-well plates and incubated overnight at 37° C. Drug was added to the wells following dilution in culture medium. Three days later the medium was removed and the plates frozen at −80° C. for at least 30 minutes.
MCF7 is a human breast adenocarcinoma, hormone-dependent (HTB 22);

In the next assay the test system is MDA-MB-231. Kind of assay: In vitro tumor cell proliferation, MDA-MB-231. The class given is cell-based, human. The following applies: read-out: In vitro Tumor Cell Proliferation (IC50, μM) Breast MDA-MB-231. An outline of the steps:
(§3)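 SRB read-out: 3-day drug exposure, medium and drug renewed, 4 further days, TCA fixation at 4° C, 0.4% SRB stain. CyQUANT alternative: 3-day drug exposure, then plates frozen at −80° C ≥30 min. Cells plated overnight at 37° C before dosing.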

Another assay relates to HT-29. Kind of assay: In vitro tumor cell proliferation, HT-29. The assay is classed as cell-based, human. The following applies: read-out: In vitro Tumor Cell Proliferation (IC50, μM) Colon HT-29 (converted). An outline of the steps: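 HT-29 human colon adenocarcinoma cells plated overnight at 37° C., then exposed to drug for 3 days, medium with fresh drug replaced for a further 4 days. Cells fixed with 10% TCA and stained with 0.4% sulforhodamine B; alternatively, CyQUANT read after 3 days of drug exposure.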

For another assay, the system named is HCT-15. As to the kind of experiment: In vitro tumor cell proliferation, HCT-15. The class given is cell-based, human. The following applies: read-out: In vitro Tumor Cell Proliferation (IC50, μM) Colon HCT-15. As for the experimental part: as §1, §2
The next assay concerns A549. As to the kind of experiment: In vitro tumor cell proliferation, A549. The class given is cell-based, human. The following applies: read-out: In vitro Tumor Cell Proliferation (IC50, μM) Lung A549. The gist of the method:
as §3

In another assay the test system is DMS-114. Kind of assay: In vitro tumor cell proliferation, DMS-114. The class given is cell-based, human. The following applies: read-out: In vitro Tumor Cell Proliferation (IC50, μM) Lung DMS-114. The gist of the method: as §3
The subject of another assay is PC-3. As to the kind of experiment: In vitro tumor cell proliferation, PC-3. The assay is classed as cell-based, human. The following applies: read-out: In vitro Tumor Cell Proliferation (IC50, μM) Prostate PC-3. An outline of the steps: as §3
The subject of the next assay is DU 145. As to the kind of experiment: In vitro tumor cell proliferation, DU 145. The assay is classed as cell-based, human. The following applies: read-out: In vitro Tumor Cell Proliferation (IC50, μM) Prostate DUI45. An outline of the steps: as §3
Where [1] appears, read: Homo sapiens, MCF7, values without *.
Setting [2] is: values without *, dihydrochloride.
[3] abbreviates: Homo sapiens, HT-29, values without *.
Setting [4] is: Homo sapiens, HCT-15, values without *.
Where [5] appears, read: Homo sapiens, A549, values without *.
Where [6] appears, read: Homo sapiens, DMS-114, values without *.
Where [7] appears, read: Homo sapiens, PC-3, values without *.
The mark [8] stands for this setting: Homo sapiens, DU-145, values without *.
Setting [9] is: Homo sapiens, MDA-MB-231, values without *.
Setting [10] is: values without *, trihydrochloride.

T2 sequence (P11802 whole entry): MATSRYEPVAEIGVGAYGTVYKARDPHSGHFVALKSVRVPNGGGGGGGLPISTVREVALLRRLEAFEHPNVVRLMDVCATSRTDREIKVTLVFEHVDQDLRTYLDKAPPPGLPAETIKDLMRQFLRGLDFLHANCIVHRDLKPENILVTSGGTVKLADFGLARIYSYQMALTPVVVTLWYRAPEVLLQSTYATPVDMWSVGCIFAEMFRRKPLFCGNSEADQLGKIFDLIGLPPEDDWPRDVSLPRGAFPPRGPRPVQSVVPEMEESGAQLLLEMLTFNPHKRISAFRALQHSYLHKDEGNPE
T2 sequence (P24385 whole entry partner): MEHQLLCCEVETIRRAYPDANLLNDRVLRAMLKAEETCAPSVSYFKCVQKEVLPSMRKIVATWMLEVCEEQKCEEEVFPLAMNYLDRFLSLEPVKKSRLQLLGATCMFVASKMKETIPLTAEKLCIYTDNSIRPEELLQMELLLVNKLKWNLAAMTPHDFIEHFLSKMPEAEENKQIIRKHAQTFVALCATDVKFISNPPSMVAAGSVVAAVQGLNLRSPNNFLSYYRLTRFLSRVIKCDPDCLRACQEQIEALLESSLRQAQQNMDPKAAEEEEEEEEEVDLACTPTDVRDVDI

Turning to `N[C@H]1CC[C@H](Nc2nc(NCCCc3ccccc3)c3ncn(C4CCCC4)c3n2)CC1` [Example 24, 2-[Trans-(4-aminocyclohexyl)amino]-6-[3-(phenyl)propylamino]-9-cyclopentylpurine dihydrochloride], the IC50 was 0.13 µM against cdk2/cyclin E; 0.57 µM and 0.9 µM on cdk4/cyclin D1; 0.42 µM with MCF-7 (Homo sapiens, MCF7, values marked * (mark not explained)); 0.34 µM with MCF-7 (setting [1]); 0.47 µM in the assay with MCF-7 (setting [2]); 0.24 µM in the assay on MDA-MB-231 (Homo sapiens, MDA-MB-231, values marked * (mark not explained)). Also, the IC50 with HT-29 (Homo sapiens, HT-29, values marked * (mark not explained)) was 0.19 µM; with HT-29 (setting [3]) it was 0.16 µM; in the assay with HT-29 (setting [2]), 0.17 µM and 0.28 µM; in the assay with HCT-15 (Homo sapiens, HCT-15, values marked * (mark not explained)) it was 0.99 µM; in the assay on HCT-15 (setting [4]), 1.4 µM; with HCT-15 (setting [2]) it was 1 µM. Further, the IC50 was 0.11 µM in the assay on A549 (Homo sapiens, A549, values marked * (mark not explained)); 0.15 µM in the assay with A549 (setting [5]); 0.07 µM in the assay with DMS-114 (Homo sapiens, DMS-114, values marked * (mark not explained)); 0.14 µM in the assay on DMS-114 (setting [6]); 0.13 µM in the assay on DMS-114 (setting [2]); 0.2 µM in the assay on PC-3 (Homo sapiens, PC-3, values marked * (mark not explained)). For the same compound, the IC50 in the assay with PC-3 (setting [7]) was 0.13 µM; in the assay with PC-3 (setting [2]), 0.23 µM; in the assay with DU 145 (Homo sapiens, DU-145, values marked * (mark not explained)) it was 0.54 µM; in the assay with DU 145 (setting [8]), 0.39 µM; with DU 145 (setting [2]), 0.38 µM and 0.51 µM.
As for `C[C@@H](Nc1nc(NC2CCC(N)CC2)nc2c1ncn2C1CCCC1)c1ccccc1` (stereo partly drawn) [Example 16, (R)-2-[Trans-(4-aminocyclohexyl)amino]-6-[(α-methylbenzylamino]-9-cyclopentylpurinedihydrochloride], the IC50 at cdk2/cyclin E was 0.72 µM; on cdk4/cyclin D1 it was 11 µM and 6.7 µM; in the assay with MCF-7 (setting [1]), 4.1 µM; in the assay on MCF-7 (setting [2]) it was 2.5 µM; in the assay with MDA-MB-231 (setting [9]), 5.9 µM; in the assay on MDA-MB-231 (setting [2]) it was 4.4 µM. In addition, the IC50 with HT-29 (setting [3]) is 6.3 µM; with HT-29 (setting [2]), 5.1 µM; in the assay with HCT-15 (setting [4]), 9.4 µM; in the assay with HCT-15 (setting [2]), 7.8 µM; in the assay on A549 (setting [5]), 6.4 µM; in the assay on A549 (setting [2]), 5.8 µM. In addition, the IC50 is 7.4 µM in the assay on DMS-114 (setting [6]); 5.1 µM in the assay with DMS-114 (setting [2]); 5 µM with PC-3 (setting [7]); 2.8 µM with PC-3 (setting [2]); 6.2 µM in the assay on DU 145 (setting [8]); 5 µM with DU 145 (setting [2]).
Regarding `N[C@H]1CC[C@H](Nc2nc(NCCCn3ccnc3)c3ncn(C4CCCC4)c3n2)CC1` [Example 46, 2-[Trans-(4-aminocyclohexyl)amino]-6-[3-(1-imidazolyl)propylamino]-9-cyclopentylpurine dihydrochloride], the IC50 is 0.02 µM and 0.017 µM and 0.021 µM against cdk2/cyclin E; 0.45 µM at cdk4/cyclin D1; 3.5 µM with MCF-7 (setting [1]); 4.9 µM in the assay on MCF-7 (setting [2]); 5.2 µM in the assay on MDA-MB-231 (setting [9]); 7 µM in the assay with MDA-MB-231 (setting [2]). Further, the IC50 in the assay with HT-29 (setting [3]) was 6.2 µM; in the assay on HT-29 (setting [2]), 9.7 µM; in the assay on HCT-15 (setting [2]), 16 µM; in the assay on A549 (setting [5]) it was 6 µM; in the assay on A549 (setting [2]), 6.7 µM; in the assay with DMS-114 (setting [6]) it was 5.4 µM. The IC50 was determined as 7.4 µM in the assay on DMS-114 (setting [2]); 2 µM in the assay with PC-3 (setting [7]); 3 µM in the assay with PC-3 (setting [2]); 5.1 µM in the assay on DU 145 (setting [8]); 6 µM in the assay on DU 145 (setting [2]).
Take `CC(C)n1cnc2c(NCc3ccccc3)nc(N[C@H]3CC[C@H](N)CC3)nc21` [Example 45, 2-[Trans-(4-aminocyclohexyl)amino]-6-(benzylamino)-9-(2-propyl)purine trihydrochloride]: the IC50 amounted to 0.18 µM against cdk2/cyclin E; 12 µM on cdk4/cyclin D1; 1.6 µM in the assay on MCF-7 (setting [1]); 1.7 µM in the assay with MCF-7 (setting [10]); 4 µM with MDA-MB-231 (setting [9]); 3 µM with MDA-MB-231 (setting [10]). Also, the IC50 in the assay on HT-29 (setting [3]) is 4.8 µM; in the assay with HT-29 (setting [10]), 3.5 µM; in the assay with HCT-15 (setting [4]), 16 µM; in the assay with HCT-15 (setting [10]) it was 17 µM; in the assay on A549 (setting [5]), 2 µM; with A549 (setting [10]), 1.8 µM. The IC50 was 2.1 µM in the assay with DMS-114 (setting [6]); 1.6 µM in the assay with DMS-114 (setting [10]); 2.4 µM in the assay with PC-3 (setting [7]); 1.4 µM in the assay on PC-3 (setting [10]); 2.5 µM in the assay with DU 145 (setting [8]); 1.9 µM in the assay with DU 145 (setting [10]).
For the compound `N[C@H]1CC[C@H](Nc2nc(NCC3CCCCO3)c3ncn(C4CCCC4)c3n2)CC1` (relative stereo) [Example 30, 2-[Trans-(4-aminocyclohexyl)amino]-6-[(2-tetrahydropyranyl)methylamino]-9-cyclopentylpurine dihydrochloride], the IC50 against cdk2/cyclin E stood at 0.126 µM; at cdk4/cyclin D1, 0.6 µM; in the assay with MCF-7 (setting [1]), 2.5 µM; with MCF-7 (setting [2]) it was 3.1 µM; in the assay on MDA-MB-231 (setting [9]), 6.4 µM; in the assay on MDA-MB-231 (setting [2]), 8.6 µM. Also, the IC50 in the assay on HT-29 (setting [3]) is 5.3 µM; in the assay on HT-29 (setting [2]), 7.9 µM; in the assay with HCT-15 (setting [4]) it was 21 µM; with HCT-15 (setting [2]), 22 µM; in the assay with A549 (setting [5]), 2.5 µM; in the assay with A549 (setting [2]) it was 3.1 µM. Further, the IC50 in the assay with DMS-114 (setting [6]) was determined as 2.9 µM; in the assay with DMS-114 (setting [2]) it was 3.7 µM; with PC-3 (setting [7]), 1.9 µM; in the assay with PC-3 (setting [2]), 2.3 µM; in the assay on DU 145 (setting [8]), 3.3 µM; in the assay with DU 145 (setting [2]), 4 µM.
